Assays:
[1] = target: T1, Protein deacetylase HDAC6 (Homo sapiens, UniProt Q9UBN7); experiment: Inhibition of human recombinant HDAC6 using fluorogenic HDAC substrate after 30 mins by fluorimetrc method
T1 sequence (Q9UBN7 whole entry): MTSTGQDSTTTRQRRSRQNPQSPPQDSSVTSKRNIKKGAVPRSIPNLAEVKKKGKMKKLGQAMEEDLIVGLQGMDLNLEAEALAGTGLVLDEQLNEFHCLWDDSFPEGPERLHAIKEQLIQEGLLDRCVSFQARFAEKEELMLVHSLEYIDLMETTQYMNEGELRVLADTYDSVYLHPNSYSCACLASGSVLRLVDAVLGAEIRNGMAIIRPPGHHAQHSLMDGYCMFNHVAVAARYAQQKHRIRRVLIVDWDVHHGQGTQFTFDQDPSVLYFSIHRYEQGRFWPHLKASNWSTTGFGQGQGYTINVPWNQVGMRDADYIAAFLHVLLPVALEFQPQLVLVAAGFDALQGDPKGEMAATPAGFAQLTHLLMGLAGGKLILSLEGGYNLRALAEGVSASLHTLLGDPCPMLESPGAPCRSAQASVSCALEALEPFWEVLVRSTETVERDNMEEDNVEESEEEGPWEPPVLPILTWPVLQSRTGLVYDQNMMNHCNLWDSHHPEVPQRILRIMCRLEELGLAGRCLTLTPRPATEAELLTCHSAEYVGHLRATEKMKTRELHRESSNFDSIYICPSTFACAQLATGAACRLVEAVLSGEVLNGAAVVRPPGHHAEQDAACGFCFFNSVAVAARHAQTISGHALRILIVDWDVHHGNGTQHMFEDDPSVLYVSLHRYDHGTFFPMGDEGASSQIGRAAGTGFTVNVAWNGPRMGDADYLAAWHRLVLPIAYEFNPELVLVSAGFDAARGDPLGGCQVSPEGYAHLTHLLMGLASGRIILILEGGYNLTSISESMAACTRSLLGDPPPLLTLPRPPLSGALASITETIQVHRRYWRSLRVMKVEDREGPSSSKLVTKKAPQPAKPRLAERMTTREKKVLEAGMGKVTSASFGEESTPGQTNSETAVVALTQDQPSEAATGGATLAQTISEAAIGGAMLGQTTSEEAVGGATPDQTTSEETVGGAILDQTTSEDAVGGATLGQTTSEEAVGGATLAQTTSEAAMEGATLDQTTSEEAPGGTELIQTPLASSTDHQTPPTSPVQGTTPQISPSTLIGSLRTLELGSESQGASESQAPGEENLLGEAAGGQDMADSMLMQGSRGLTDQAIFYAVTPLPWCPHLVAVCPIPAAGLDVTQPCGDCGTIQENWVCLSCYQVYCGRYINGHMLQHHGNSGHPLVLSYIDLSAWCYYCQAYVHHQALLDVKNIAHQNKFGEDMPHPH

Histone deacetylase 9 = Histone deacetylase 9 (Homo sapiens, UniProt Q9UKV0); experiment: Inhibition of human recombinant HDAC9 using fluorogenic HDAC substrate class 2a after 30 mins by fluorimetrc method
Sequence of Histone deacetylase 9 (Q9UKV0 whole entry): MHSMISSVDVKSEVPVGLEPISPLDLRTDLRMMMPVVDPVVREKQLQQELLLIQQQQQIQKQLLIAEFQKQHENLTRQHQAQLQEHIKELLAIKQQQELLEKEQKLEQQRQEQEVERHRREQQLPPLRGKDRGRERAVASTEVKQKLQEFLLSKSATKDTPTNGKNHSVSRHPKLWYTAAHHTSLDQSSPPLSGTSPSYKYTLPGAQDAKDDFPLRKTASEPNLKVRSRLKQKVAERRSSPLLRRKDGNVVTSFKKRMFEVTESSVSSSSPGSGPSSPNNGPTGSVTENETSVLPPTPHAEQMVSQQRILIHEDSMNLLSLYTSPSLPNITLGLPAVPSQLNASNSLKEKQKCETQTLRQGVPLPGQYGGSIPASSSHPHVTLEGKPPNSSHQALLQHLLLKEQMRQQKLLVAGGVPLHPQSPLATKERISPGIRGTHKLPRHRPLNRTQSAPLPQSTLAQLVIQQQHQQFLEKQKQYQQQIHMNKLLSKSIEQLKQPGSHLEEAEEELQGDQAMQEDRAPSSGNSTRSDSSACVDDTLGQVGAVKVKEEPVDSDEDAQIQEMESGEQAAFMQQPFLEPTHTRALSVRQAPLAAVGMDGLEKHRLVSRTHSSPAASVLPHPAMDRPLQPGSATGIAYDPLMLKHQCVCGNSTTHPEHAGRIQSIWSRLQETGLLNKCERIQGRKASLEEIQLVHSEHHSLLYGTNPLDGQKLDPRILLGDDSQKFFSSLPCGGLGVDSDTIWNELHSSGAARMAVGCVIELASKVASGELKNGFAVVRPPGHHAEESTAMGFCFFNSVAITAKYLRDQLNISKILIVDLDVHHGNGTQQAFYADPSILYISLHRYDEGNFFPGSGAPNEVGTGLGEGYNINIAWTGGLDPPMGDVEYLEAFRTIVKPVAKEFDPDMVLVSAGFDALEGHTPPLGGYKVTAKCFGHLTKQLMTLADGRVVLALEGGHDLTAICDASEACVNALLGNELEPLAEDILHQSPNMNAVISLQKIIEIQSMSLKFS

[2] = target: T2, NAD-dependent protein deacetylase sirtuin-1 (Homo sapiens, UniProt Q96EB6); experiment: Inhibition of human recombinant SIRT1 using fluorogenic HDAC substrate after 20 mins by fluorimetrc method
T2 sequence (Q96EB6 whole entry): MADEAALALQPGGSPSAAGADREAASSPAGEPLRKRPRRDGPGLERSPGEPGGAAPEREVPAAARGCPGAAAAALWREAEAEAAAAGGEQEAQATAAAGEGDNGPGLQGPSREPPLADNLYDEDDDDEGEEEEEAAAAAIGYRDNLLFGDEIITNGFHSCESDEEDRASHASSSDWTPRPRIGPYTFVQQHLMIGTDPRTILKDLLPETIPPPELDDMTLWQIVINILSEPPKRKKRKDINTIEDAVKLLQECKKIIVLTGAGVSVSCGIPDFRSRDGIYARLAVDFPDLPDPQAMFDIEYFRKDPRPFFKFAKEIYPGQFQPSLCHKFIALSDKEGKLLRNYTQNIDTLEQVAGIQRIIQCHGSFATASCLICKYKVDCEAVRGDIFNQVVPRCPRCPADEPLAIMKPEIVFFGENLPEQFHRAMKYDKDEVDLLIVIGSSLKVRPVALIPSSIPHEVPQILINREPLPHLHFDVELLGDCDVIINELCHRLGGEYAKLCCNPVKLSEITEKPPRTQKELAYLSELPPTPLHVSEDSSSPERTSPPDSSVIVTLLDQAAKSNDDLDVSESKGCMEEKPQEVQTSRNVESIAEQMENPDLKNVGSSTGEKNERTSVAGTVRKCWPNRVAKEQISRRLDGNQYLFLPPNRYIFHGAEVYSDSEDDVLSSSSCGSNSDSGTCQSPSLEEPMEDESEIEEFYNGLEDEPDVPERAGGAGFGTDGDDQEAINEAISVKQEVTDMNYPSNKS

[3] = target: T3, NAD-dependent protein deacetylase sirtuin-2 (Homo sapiens, UniProt Q8IXJ6); experiment: Inhibition of human recombinant SIRT2 using fluoro-lysine sirtuin 2 deacetylase substrate after 60 mins by fluorimetrc method
T3 sequence (Q8IXJ6 whole entry): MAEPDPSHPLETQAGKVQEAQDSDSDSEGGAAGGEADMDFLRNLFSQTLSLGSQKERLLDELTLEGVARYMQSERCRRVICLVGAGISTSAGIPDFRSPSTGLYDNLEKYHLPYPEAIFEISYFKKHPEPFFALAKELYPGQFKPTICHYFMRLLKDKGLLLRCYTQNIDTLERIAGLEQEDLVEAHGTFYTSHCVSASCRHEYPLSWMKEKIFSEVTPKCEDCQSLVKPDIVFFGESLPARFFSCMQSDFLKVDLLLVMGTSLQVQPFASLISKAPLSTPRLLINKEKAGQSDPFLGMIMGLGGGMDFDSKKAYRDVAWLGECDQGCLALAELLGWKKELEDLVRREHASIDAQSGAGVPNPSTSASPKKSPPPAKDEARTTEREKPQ

SMILES | Ki [1] [µM] | Ki (Histone deacetylase 9) [µM] | Ki [2] [µM] | Ki [3] [µM]
COc1ccc(Nc2c(NCCCCCC(=O)NO)c(=O)c2=O)cc1 | 0.023 | > 10 | > 10 | > 10
CC(C)(CCCCC(=O)NO)Nc1c(Nc2ccc(C(F)(F)F)cc2)c(=O)c1=O | 0.13 | > 10 | > 10 | > 10
CC(Nc1c(NCCCCCC(=O)NO)c(=O)c1=O)C12CC3CC(CC(C3)C1)C2 (configuration not stated) | 0.13 | > 10 | > 10 | > 10

Reference: ChEMBL document CHEMBL4229543, “Squaramides as novel class I and IIB histone deacetylase inhibitors for topical treatment of cutaneous t-cell lymphoma” (Bioorg Med Chem Lett, 2018)
